Consider 21 compounds from patent US9284333B2, “Fused pyrroledicarboxamides and their use as pharmaceuticals” (SANOFI, priority 2012, dated 2016).

Sequence of Human TASK-1 channels (O14649 whole entry): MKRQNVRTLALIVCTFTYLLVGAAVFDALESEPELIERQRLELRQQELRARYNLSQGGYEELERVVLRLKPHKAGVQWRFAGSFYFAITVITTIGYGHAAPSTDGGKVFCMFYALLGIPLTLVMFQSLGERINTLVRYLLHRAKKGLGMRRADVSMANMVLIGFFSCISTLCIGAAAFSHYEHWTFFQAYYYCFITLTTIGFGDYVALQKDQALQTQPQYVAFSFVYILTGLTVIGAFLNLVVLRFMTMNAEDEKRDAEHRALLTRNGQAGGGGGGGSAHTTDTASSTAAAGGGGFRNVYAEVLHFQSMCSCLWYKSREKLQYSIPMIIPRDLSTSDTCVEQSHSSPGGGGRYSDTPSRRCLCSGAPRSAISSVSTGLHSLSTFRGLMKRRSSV

The first test concerns the target Human TASK-1 channels (Homo sapiens (Human), UniProt O14649). In words: Determination of the activity on the TASK-1 channel in Xenopus oocytes (two-microelectrode voltage clamp). The format is cell-based. The following applies: compound concentration 5 μM. The protocol:
Determination of the activity on the TASK-1 channel in Xenopus oocytes
Human TASK-1 channels were expressed in Xenopus oocytes. For this purpose, oocytes were isolated from Xenopus laevis and defoliculated. Subsequently, TASK-1-encoding RNA synthesized in vitro was injected into the oocytes. After two days of TASK-1 protein expression, TASK-1 currents were measured by two-microelectrode voltage clamp. Data were acquired and analyzed using a TEC-10cx amplifier (NPI Electronic, Tamm, Germany) connected to an ITC-16 interface (Instrutech Corp., Long Island, USA) and Pulse software (HEKA Elektronik, Lambrecht, Germany). Oocytes were clamped to −90 mV and TASK-1 mediated currents were measured during 500 ms voltage pulses to 40 mV. Oocytes were continuously superfused with ND96 buffer containing 96 mM sodium chloride, 2 mM potassium chloride, 1.8 mM calcium chloride, 1 mM magnesium chloride, 5 mM 4-(2-hydroxyethyl)-piperazine-1-ethanesulfonic acid (HEPES; pH adjusted to 7.4 with sodium hydroxide). All experiments were performed at room temperature. Test compounds were consecutively added to the bath solution at rising concentrations. Compound effects were calculated as the percentage inhibition of TASK-1 control current before compound addition. IC50 values were obtained by fitting the data to the general dose-response equation.
Turning to `C[C@@H](NC(=O)c1cc(C(=O)NCC(F)(F)F)c2n1CCOC2)c1ccc(F)cc1` [16dr, 3,4-Dihydro-1H-pyrrolo[2,1-c][1,4]oxazine-6,8-dicarboxylic acid 6-{[(R)-1-(4-fluoro-phenyl)-ethyl]-amide} 8-[(2,2,2-trifluoro-ethyl)-amide]], testing at 5 µM gave an inhibition of 84%.

With `CC(C)[C@@H](NC(=O)c1cc(C(=O)NCc2ncco2)c2n1CCOC2)c1ccc(F)cc1` [16ll, 3,4-Dihydro-1H-pyrrolo[2,1-c][1,4]oxazine-6,8-dicarboxylic acid 6-{[(R)-1-(4-fluoro-phenyl)-2-methyl-propyl]-amide} 8-[(oxazol-2-ylmethyl)-amide]], 5 µM produced 86% inhibition.

Still in this test, the particulars now being: human TASK-1 expressed in Xenopus oocytes, room temperature; read-out: IC50 value for TASK-1 inhibition.
Take `CC[C@@H](NC(=O)c1cc(C(=O)N2CCCC2)n2c1COCC2)c1ccccc1Cl` [16cy, 6-(Pyrrolidine-1-carbonyl)-3,4-dihydro-1H-pyrrolo[2,1-c][1,4]oxazine-8-carboxylic acid [(R)-1-(2-chloro-phenyl)-propyl]-amide]: the IC50 stood at 210 nM.

Regarding `CC[C@@H](NC(=O)c1cc(C(=O)N[C@H](C)c2ccc(F)cc2)n2c1COCC2)c1ccc(C(F)(F)F)cn1` [16eg, 3,4-Dihydro-1H-pyrrolo[2,1-c][1,4]oxazine-6,8-dicarboxylic acid 6-{[(R)-1-(4-fluoro-phenyl)-ethyl]-amide} 8-{[(R)-1-(5-trifluoromethyl-pyridin-2-yl)-propyl]-amide}], the IC50 stood at 54 nM.

`CC[C@@H](NC(=O)c1cc(C(=O)N2CCC[C@@H]2C)n2c1COCC2)c1ccc(C(F)(F)F)nc1C` [16cb, 6-((S)-2-Methyl-pyrrolidine-1-carbonyl)-3,4-dihydro-1H-pyrrolo[2,1-c][1,4]oxazine-8-carboxylic acid [(R)-1-(2-methyl-6-trifluoromethyl-pyridin-3-yl)-propyl]-amide]: the IC50 was 140 nM.

Regarding `CC[C@@H](NC(=O)c1cc(C(=O)Nc2nc(C)c(C)s2)c2n1CCOC2)c1ccccc1` [16ju, 3,4-Dihydro-1H-pyrrolo[2,1-c][1,4]oxazine-6,8-dicarboxylic acid 8-[(4,5-dimethyl-thiazol-2-yl)-amide] 6-[((R)-1-phenyl-propyl)-amide]], the IC50 came out at 940 nM.

As to `CC[C@@H](NC(=O)c1cc(C(=O)N[C@H](C)c2ccc(F)cc2)n2c1COCC2)c1ncc(C(F)(F)F)cn1` [16ed, 3,4-Dihydro-1H-pyrrolo[2,1-c][1,4]oxazine-6,8-dicarboxylic acid 6-{[(R)-1-(4-fluoro-phenyl)-ethyl]-amide} 8-{[(R)-1-(5-trifluoromethyl-pyrimidin-2-yl)-propyl]-amide}], the 50% inhibitory concentration (IC50) amounted to 300 nM.

`CC(NC(=O)c1cc(C(=O)N[C@@H](c2ccc(F)cc2)C(C)C)n2c1COCC2)c1ccno1` (stereo partly drawn) [16lk, 3,4-Dihydro-1H-pyrrolo[2,1-c][1,4]oxazine-6,8-dicarboxylic acid 6-{[(R)-1-(4-fluoro-phenyl)-2-methyl-propyl]-amide} 8-[(1-isoxazol-5-yl-ethyl)-amide]]: the IC50 came to 310 nM.

For the compound `CC[C@@H](NC(=O)c1cc(C(=O)N2CCCC2)n2c1COCC2)c1ccc(F)cc1Cl` [16db, 6-(Pyrrolidine-1-carbonyl)-3,4-dihydro-1H-pyrrolo[2,1-c][1,4]oxazine-8-carboxylic acid [(R)-1-(2-chloro-4-fluoro-phenyl)-propyl]-amide], the IC50 was 90 nM.

For the compound `CC[C@@H](NC(=O)c1cc(C(=O)N[C@H](CC)c2ccccc2)n2c1CCCC2)c1ccccc1` [16ma, 5,6,7,8-Tetrahydro-indolizine-1,3-dicarboxylic acid bis-[((R)-1-phenyl-propyl)-amide]], the IC50 turned out to be 51 nM.

Turning to `CC[C@@H](NC(=O)c1cc(C(=O)N2CCC[C@@H]2C)n2c1COCC2)c1ccc(F)c(Cl)c1` [16cg, 6-((S)-2-Methyl-pyrrolidine-1-carbonyl)-3,4-dihydro-1H-pyrrolo[2,1-c][1,4]oxazine-8-carboxylic acid [(R)-1-(3-chloro-4-fluoro-phenyl)-propyl]-amide], the IC50 is 15 nM.

For `CC[C@@H](NC(=O)c1cc(C(=O)N[C@@H](C)C2CC2)n2c1CCCC2)c1ccccc1` [16mz, 5,6,7,8-Tetrahydro-indolizine-1,3-dicarboxylic acid 3-[((S)-1-cyclopropyl-ethyl)-amide] 1-[((R)-1-phenyl-propyl)-amide]], the IC50 is 42 nM.

Consider `CC[C@@H](NC(=O)c1cc(C(=O)N2CCN(CCC(F)(F)F)C[C@@H]2C)n2c1COCC2)c1ccccc1` [16ft, 6-[(S)-2-Methyl-4-(3,3,3-trifluoro-propyl)-piperazine-1-carbonyl]-3,4-dihydro-1H-pyrrolo[2,1-c][1,4]oxazine-8-carboxylic acid ((R)-1-phenyl-propyl)-amide], for which the IC50 was 3600 nM.

With `C[C@@H](NC(=O)c1cc(C(=O)N[C@H](C)c2ccc(F)cc2)n2c1COCC2)c1cccc(F)c1` [16do, 3,4-Dihydro-1H-pyrrolo[2,1-c][1,4]oxazine-6,8-dicarboxylic acid 6-{[(R)-1-(4-fluoro-phenyl)-ethyl]-amide} 8-{[(R)-1-(3-fluoro-phenyl)-ethyl]-amide}], the IC50 stood at 190 nM.

Take `CC[C@@H](NC(=O)c1cc(C(=O)NC(C)c2ncccn2)c2n1CCOC2)c1ccc(F)cc1Cl` (stereo partly drawn) [16kp, 3,4-Dihydro-1H-pyrrolo[2,1-c][1,4]oxazine-6,8-dicarboxylic acid 6-{[(R)-1-(2-chloro-4-fluoro-phenyl)-propyl]-amide} 8-[(1-pyrimidin-2-yl-ethyl)-amide]]: the IC50 is 280 nM.

For `CC[C@@H](NC(=O)c1cc(C(=O)NC(C)c2ccno2)n2c1COCC2)c1ccccc1` (stereo partly drawn) [16hh, 3,4-Dihydro-1H-pyrrolo[2,1-c][1,4]oxazine-6,8-dicarboxylic acid 6-[(1-isoxazol-5-yl-ethyl)-amide] 8-[((R)-1-phenyl-propyl)-amide]], the IC50 was 1000 nM.

Take `CC[C@@H](NC(=O)c1cc(C(=O)N2CCC[C@@H]2C(C)C)c2n1CCOC2)c1ccccc1` [16kl, 8-((R)-2-Isopropyl-pyrrolidine-1-carbonyl)-3,4-dihydro-1H-pyrrolo[2,1-c][1,4]oxazine-6-carboxylic acid ((R)-1-phenyl-propyl)-amide]: the IC50 amounted to 210 nM.

`CC[C@@H](NC(=O)c1cc(C(=O)N[C@H](CC)c2cccnc2C(F)(F)F)n2c1COCC2)c1ccccc1` [16hm, 3,4-Dihydro-1H-pyrrolo[2,1-c][1,4]oxazine-6,8-dicarboxylic acid 8-[((R)-1-phenyl-propyl)-amide] 6-{[(R)-1-(2-trifluoromethyl-pyridin-3-yl)-propyl]-amide}]: the IC50 amounted to 660 nM.

As to `CC[C@@H](NC(=O)c1cc(C(=O)N(CCO)CC2CC2)n2c1COCC2)c1ccccc1` [16hk, 3,4-Dihydro-1H-pyrrolo[2,1-c][1,4]oxazine-6,8-dicarboxylic acid 6-[cyclopropylmethyl-(2-hydroxy-ethyl)-amide] 8-[((R)-1-phenyl-propyl)-amide]], the IC50 came to 1400 nM.

As to `CC[C@@H](NC(=O)c1cc(C(=O)NCC(=O)OC(C)C)n2c1COCC2)c1ccccc1` [16iw, {[8-((R)-1-Phenyl-propylcarbamoyl)-3,4-dihydro-1H-pyrrolo[2,1-c][1,4]oxazine-6-carbonyl]-amino}-acetic acid isopropyl ester], the IC50 was found to be 620 nM.

For `CC[C@@H](NC(=O)c1cc(C(=O)NCc2ccno2)n2c1COCC2)c1ccccc1` [16hf, 3,4-Dihydro-1H-pyrrolo[2,1-c][1,4]oxazine-6,8-dicarboxylic acid 6-[(isoxazol-5-ylmethyl)-amide] 8-[((R)-1-phenyl-propyl)-amide]], the IC50 came to 380 nM.

Broadly, the inhibition is the relative decrease from the control value, in per cent. One may read the IC50 as the concentration that inhibits the measured activity by half.
